Patent publication US12661370B2, “Amino acid salts of nicotinic acid ribosides as anti-aging agents” (Jumpstart Fertility Pty Ltd, priority 2018, dated 2026)

test system: COV434 cells; assay: NAD cell assay (NAD cycling method); format: cell-based; settings: cellular NAD level, 200 uM for 4 hr, normalised to protein, mole per mole comparison with NaR parent
Method: NAD levels were assayed based on the NAD cycling method of Zhu and Rand, PLoS One (2012), herein incorporated by reference. COV434 cells were maintained in 6 well plates and treated with the indicated compounds at a concentration of 200 uM for 4 hr. Media was removed, plates were washed in cold PBS and cells were scraped down in NAD extraction buffer containing 10 mM nicotinamide, 50 mM Tris HCl, 0.1% Triton X-100. Cells were homogenised by sonication for 5 seconds, and samples were centrifuged at 7,000 g for 5 min at 4 degrees. Aliquots were taken for later protein assay, and samples were then passed through 10 kDa amicon filters at 14,000 g, 30 min at 4 degrees to remove proteins from the sample. Each sample was measured in technical triplicate, with 25 μL sample added to 100 μL ADH cycling mix (0.2 mg/ml alcohol dehydrogenase enzyme, 2% ethanol, 100 mM Tris pH 8.5). Samples were allowed to cycle for 10 min at room temperature, followed by 50 μL addition of an MTT/PMS solution (0.1 mM phenazine methosulfate, 0.8 mM 3(4,5-Dimethylthiazol-2-yl)-2,5-diphenyltetrazolium bromide), 100 mM Tris-HCl pH 8.5). Plates were then incubated for 15 min and absorbance was measured at 570 nm. NAD concentrations were extrapolated from a standard curve, and normalised to protein concentrations determined by BCA protein assay.
The adjusted fold increase is obtained through a direct comparison on a mole per mole basis between the compared salt and its parent counterpart. In other words, the instant compounds derived from NaR parent molecule will only have their NAD activity level measured against NaR based on the same amount (mole) of salt tested in the cell. For example, the fold increase of compound I-002 is based on the NAD activity observed in a direct comparison for the same amount of mole in the cell and that of the NaR parent. Similarly, the fold increase of i-003 is based on the direct comparison with NaR.

Compound | Fold increase adjusted for MW (compared to parent molecule) [fold]
(2S,3S)-2-Ammonio-3-methylpentanoate compound with 1-((2R,3R,4S,5R)-3,4-dihydroxy-5-(hydroxymethyl)tetrahydrofuran-2-yl)pyridine-1-ium-3-carboxylate (1:1) [Compound I-002] | 1.34
(S)-2-Ammonio-3-(1H-indol-3-yl)propanoate compound with 1-((2R,3R,4S,5R)-3,4-dihydroxy-5-(hydroxymethyl)tetrahydrofuran-2-yl)pyridine-1-ium-3-carboxylate (1:1) [Compound I-003] | 1.76
O=C([O-])c1ccc[n+]([C@@H]2O[C@H](CO)[C@@H](O)[C@H]2O)c1 [NaR, reference compound] | 1.0
